Results from PubChem BioAssay (NCI).
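Growth conditions: 96-well plates. Treatment: test compound, 48 hours, 5 concentrations. Analysis: linear interpolation between bracketing concentrations; unreached endpoints set to highest concentration. Abbreviation: GI50, concentration required for 50% inhibition of growth. TGI denotes the concentration required for complete inhibition of growth.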

How the values were obtained:
Test in all cases: growth of human tumour cells (NCI), 48 h
OVCAR-4 ovarian = tested on: OVCAR-4 ovarian
RXF 393 renal = tested on: RXF 393 renal
UACC-62 melanoma = tested on: UACC-62 melanoma
MCF7 breast = tested on: MCF7 breast
ACHN renal = tested on: ACHN renal
A549 NSCLC = tested on: A549 NSCLC
OVCAR-5 ovarian = tested on: OVCAR-5 ovarian
SF-268 CNS = tested on: SF-268 CNS
SW-620 colon = tested on: SW-620 colon
DU-145 prostate = tested on: DU-145 prostate
HCT-116 colon = tested on: HCT-116 colon
TK-10 renal = tested on: TK-10 renal
OVCAR-8 ovarian = tested on: OVCAR-8 ovarian
M14 melanoma = tested on: M14 melanoma
KM12 colon = tested on: KM12 colon
OVCAR-3 ovarian = tested on: OVCAR-3 ovarian
COLO 205 colon = tested on: COLO 205 colon
NCI-H226 lung = tested on: NCI-H226 lung
NCI-H23 lung = tested on: NCI-H23 lung
786-0 renal = tested on: 786-0 renal
T-47D breast = tested on: T-47D breast
A498 renal = tested on: A498 renal
EKVX NSCLC = tested on: EKVX NSCLC
U251 CNS = tested on: U251 CNS
HOP-92 NSCLC = tested on: HOP-92 NSCLC
NCI/ADR-RES ovarian = tested on: NCI/ADR-RES ovarian
RPMI-8226 leukemia = tested on: RPMI-8226 leukemia
SNB-19 CNS = tested on: SNB-19 CNS
HT29 colon = tested on: HT29 colon
UACC-257 melanoma = tested on: UACC-257 melanoma
SNB-75 CNS = tested on: SNB-75 CNS
SK-MEL-28 melanoma = tested on: SK-MEL-28 melanoma
HOP-62 NSCLC = tested on: HOP-62 NSCLC
SF-539 CNS = tested on: SF-539 CNS
SK-OV-3 ovarian = tested on: SK-OV-3 ovarian
SF-295 CNS = tested on: SF-295 CNS
SN12C renal = tested on: SN12C renal
SK-MEL-5 melanoma = tested on: SK-MEL-5 melanoma
CAKI-1 renal = tested on: CAKI-1 renal
SK-MEL-2 melanoma = tested on: SK-MEL-2 melanoma
NCI-H460 lung = tested on: NCI-H460 lung
LOX IMVI melanoma = tested on: LOX IMVI melanoma
HCT-15 colon = tested on: HCT-15 colon
BT-549 breast = tested on: BT-549 breast
HCC-2998 colon = tested on: HCC-2998 colon
HS 578T breast = tested on: HS 578T breast
MOLT-4 leukemia = tested on: MOLT-4 leukemia
IGROV1 ovarian = tested on: IGROV1 ovarian
UO-31 renal = tested on: UO-31 renal
CCRF-CEM leukemia = tested on: CCRF-CEM leukemia
K-562 leukemia = tested on: K-562 leukemia
MDA-MB-435 = tested on: MDA-MB-435
MALME-3M melanoma = tested on: MALME-3M melanoma
HL-60(TB) leukemia = tested on: HL-60(TB) leukemia

CCN(CC)c1ccc2nc3ccc(N=Nc4ccc(O)cc4)cc3[n+](-c3ccccc3)c2c1
GI50 (OVCAR-4 ovarian): 1.39 µM
TGI (OVCAR-4 ovarian): 2.77 µM
GI50 (RXF 393 renal): 10.4 µM
TGI (RXF 393 renal): 24.8 µM
GI50 (UACC-62 melanoma): 4.14 µM
TGI (UACC-62 melanoma): 23.3 µM
GI50 (MCF7 breast): 1.9 µM
TGI (MCF7 breast): 5.11 µM
GI50 (ACHN renal): 4.1 µM
TGI (ACHN renal): 21.1 µM
GI50 (A549 NSCLC): 4.85 µM
TGI (A549 NSCLC): > 100 µM
GI50 (OVCAR-5 ovarian): 20.8 µM
TGI (OVCAR-5 ovarian): 73.7 µM
GI50 (SF-268 CNS): 5 µM
TGI (SF-268 CNS): > 100 µM
GI50 (SW-620 colon): 2.24 µM
TGI (SW-620 colon): 6.38 µM
GI50 (DU-145 prostate): 4.68 µM
TGI (DU-145 prostate): 16.7 µM
GI50 (HCT-116 colon): 2.66 µM
TGI (HCT-116 colon): 10.6 µM
GI50 (TK-10 renal): 3.15 µM
TGI (TK-10 renal): > 100 µM
GI50 (OVCAR-8 ovarian): 7.42 µM
TGI (OVCAR-8 ovarian): > 100 µM
GI50 (M14 melanoma): 2.29 µM
TGI (M14 melanoma): 4.79 µM
GI50 (KM12 colon): 3.7 µM
TGI (KM12 colon): 16.4 µM
GI50 (OVCAR-3 ovarian): 0.359 µM
TGI (OVCAR-3 ovarian): 4.02 µM
GI50 (COLO 205 colon): 1.26 µM
TGI (COLO 205 colon): 3.1 µM
GI50 (NCI-H226 lung): 11.4 µM
TGI (NCI-H226 lung): 23.6 µM
GI50 (NCI-H23 lung): 3.75 µM
TGI (NCI-H23 lung): 40.3 µM
GI50 (786-0 renal): 26.6 µM
TGI (786-0 renal): > 100 µM
GI50 (T-47D breast): 3.6 µM
TGI (T-47D breast): 84.1 µM
GI50 (A498 renal): > 100 µM
TGI (A498 renal): > 100 µM
GI50 (EKVX NSCLC): 3.59 µM
TGI (EKVX NSCLC): 64.8 µM
GI50 (U251 CNS): 7.81 µM
TGI (U251 CNS): > 100 µM
GI50 (HOP-92 NSCLC): > 100 µM
TGI (HOP-92 NSCLC): > 100 µM
GI50 (NCI/ADR-RES ovarian): > 100 µM
TGI (NCI/ADR-RES ovarian): > 100 µM
GI50 (RPMI-8226 leukemia): 3.85 µM
TGI (RPMI-8226 leukemia): > 100 µM
GI50 (SNB-19 CNS): 11 µM
TGI (SNB-19 CNS): 22.9 µM
GI50 (HT29 colon): 3.15 µM
TGI (HT29 colon): > 100 µM
GI50 (UACC-257 melanoma): 3.11 µM
TGI (UACC-257 melanoma): 9.78 µM
GI50 (SNB-75 CNS): 10 µM
TGI (SNB-75 CNS): 21.9 µM
GI50 (SK-MEL-28 melanoma): 5.88 µM
TGI (SK-MEL-28 melanoma): 21.5 µM
GI50 (HOP-62 NSCLC): 2.68 µM
TGI (HOP-62 NSCLC): 15.1 µM
GI50 (SF-539 CNS): 13.3 µM
TGI (SF-539 CNS): 91.2 µM
GI50 (SK-OV-3 ovarian): 35.7 µM
TGI (SK-OV-3 ovarian): > 100 µM
GI50 (SF-295 CNS): 2.86 µM
TGI (SF-295 CNS): > 100 µM
GI50 (SN12C renal): 10.7 µM
TGI (SN12C renal): 36.7 µM
GI50 (SK-MEL-5 melanoma): 2.92 µM
TGI (SK-MEL-5 melanoma): 12.2 µM
GI50 (CAKI-1 renal): 10.1 µM
TGI (CAKI-1 renal): > 100 µM
GI50 (SK-MEL-2 melanoma): 2.65 µM
TGI (SK-MEL-2 melanoma): > 100 µM
GI50 (NCI-H460 lung): 3.41 µM
TGI (NCI-H460 lung): > 100 µM
GI50 (LOX IMVI melanoma): 2.85 µM
TGI (LOX IMVI melanoma): 17.3 µM
GI50 (HCT-15 colon): 6.87 µM
TGI (HCT-15 colon): > 100 µM
GI50 (BT-549 breast): 10.5 µM
TGI (BT-549 breast): 31.8 µM
GI50 (HCC-2998 colon): 4.51 µM
TGI (HCC-2998 colon): 16.4 µM
GI50 (HS 578T breast): 1.88 µM
TGI (HS 578T breast): > 100 µM

Cc1nc(Nc2ccc(Cl)c(Cl)c2)sc1C(=O)/C=C/c1ccc2c(c1)OCO2
TGI (OVCAR-4 ovarian): 33.9 µM
TGI (RXF 393 renal): 29.3 µM
TGI (MOLT-4 leukemia): 44.1 µM
TGI (IGROV1 ovarian): > 100 µM
TGI (UACC-62 melanoma): > 100 µM
TGI (MCF7 breast): > 100 µM
TGI (ACHN renal): 45.1 µM
TGI (A549 NSCLC): 48.5 µM
TGI (OVCAR-5 ovarian): > 100 µM
TGI (SF-268 CNS): 64 µM
TGI (SW-620 colon): > 100 µM
TGI (HCT-116 colon): 49.4 µM
TGI (TK-10 renal): 53.6 µM
TGI (OVCAR-8 ovarian): 49.6 µM
TGI (KM12 colon): 50 µM
TGI (OVCAR-3 ovarian): 30 µM
TGI (UO-31 renal): 33.7 µM
TGI (COLO 205 colon): 60.6 µM
TGI (NCI-H226 lung): 62 µM
TGI (CCRF-CEM leukemia): > 100 µM
TGI (NCI-H23 lung): 49.5 µM
TGI (786-0 renal): 38.4 µM
TGI (T-47D breast): > 100 µM
TGI (A498 renal): 47.8 µM
TGI (EKVX NSCLC): 87.2 µM
TGI (U251 CNS): 49 µM
TGI (K-562 leukemia): 89.9 µM
TGI (NCI/ADR-RES ovarian): > 100 µM
TGI (RPMI-8226 leukemia): 45.9 µM
TGI (SNB-19 CNS): 51.9 µM
TGI (HT29 colon): > 100 µM
TGI (UACC-257 melanoma): > 100 µM
TGI (SNB-75 CNS): 31.4 µM
TGI (SK-MEL-28 melanoma): 86.9 µM
TGI (HOP-62 NSCLC): 36.5 µM
TGI (SF-539 CNS): 61.7 µM
TGI (SK-OV-3 ovarian): 33.6 µM
TGI (SF-295 CNS): 45.6 µM
TGI (SK-MEL-5 melanoma): 97.4 µM
TGI (MDA-MB-435): 48.4 µM
TGI (CAKI-1 renal): 32.6 µM
TGI (NCI-H460 lung): > 100 µM
TGI (LOX IMVI melanoma): 35.3 µM
TGI (MALME-3M melanoma): > 100 µM
TGI (BT-549 breast): 46.1 µM
TGI (HCC-2998 colon): 88.1 µM
TGI (HL-60(TB) leukemia): 43.4 µM

C=C(C)[C@@H]1CC[C@]2(C(=O)OCCCC[P+](c3ccccc3)(c3ccccc3)c3ccccc3)CC[C@]3(C)[C@H](CC[C@@H]4[C@@]5(C)CC[C@H](OC(=O)C(Cl)Cl)C(C)(C)[C@@H]5CC[C@]43C)[C@@H]12
GI50 (SN12C renal): 0.27 µM
TGI (SN12C renal): 1.58 µM

NC(=O)c1ncn(CC2(CO)CCC2)n1
GI50 (SNB-75 CNS): 21.6 µM
